We go through eight molecules from article PMC6941357, “An in vitro toolbox to accelerate anti-malarial drug discovery and development” (Malaria Journal, 2020).

Series [1] has as its target T1, Albumax medium (lipid rich bovine serum albumin) (Bos taurus, UniProt P02769).
T1 construct: purchased Gibco, Thermo Fisher Scientific
Briefly: Binding in Albumax medium via ultracentrifugation. Type of series: in vitro ADME. The conditions noted are these: bovine. The method, then: An ultracentrifugation method adapted from a previous publication was initially used to assess plasma protein binding and binding in the other media. […] Additional ultracentrifuge tubes containing spiked matrix were maintained at 37 °C, 5% or 10% CO2 or normal atmosphere conditions, with aliquots being taken within 0.5 h of the start and at the end of ultracentrifugation to serve as controls for the assessment of stability and to obtain a measure of the total concentration (Ctotal). Following ultracentrifugation, the pH was checked and an aliquot of protein-free supernate was taken from each ultracentrifuge tube for determination of the unbound concentration (Cunbound).
Total matrix and protein free samples were analysed using a matrix matching approach whereby each sample was mixed in a 1:1 ratio with the opposite blank medium (i.e. blank total matrix or blank protein free buffer). For example, plasma samples were mixed with blank pH 7.4 buffer whereas plasma supernatant samples were mixed with blank plasma. Each of the sample sets were then assayed against a common calibration curve prepared in a 1:1 mixture of total matrix and protein free pH 7.4 buffer. […] The standard deviation for fu was calculated using the propagation of errors approach as described previously. The potential for compound degradation was assessed by comparing the average value for Ctotal at the start and end of the experiment.

Series [2] can be described thus: Solubility in biorelevant media. The conditions noted are these: thermodynamic from solid. As for the experimental part: Solubility of each active pharmaceutical ingredient was evaluated at 37 °C in pH 7.4 phosphate buffered saline (prepared as described for the partitioning experiments), fasted (FaSSIF-V2) and fed (FeSSIF-V2) state simulated intestinal fluids and fasted state simulated gastric fluid (FaSSGF) as described by Jantratid et al.. […] Samples were vortexed and placed in a 37 °C incubator on an orbital mixer (IKA® VXR basic Vibrax® orbital mixer) set at 600 rpm. Sampling times were 1 h for FaSSGF or 5–6 h for FaSSIF-V2, FeSSIF-V2, and PBS. These times were used to reflect the maximal likely residence times within the stomach and small intestine, respectively. Sampling was carried out by centrifuging each sample at 10,000 rpm for 3 min, transferring 300 µL aliquots into fresh Eppendorf tubes and centrifuging these tubes again at 10,000 rpm for 3 min. Triplicate aliquots of the supernatant were then removed and diluted 1:2 in 50% aqueous methanol and then again in 50% aqueous acetonitrile to be within the analytical concentration range. Samples were analysed by LC–MS along with calibration standards (Additional file 1: Table S2).

A short description of series [3]: Bidirectional permeability across Caco-2 cell monolayers. The conditions noted are these: human. The essentials: (§1)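 Donor and acceptor concentrations measured by LC–MS to give Papp, mass balance and efflux ratio (mean B–A over A–B Papp). Media were pH 7.4 HEPES-buffered HBSS or human plasma on both sides; for plasma, Papp used the donor fraction unbound. Donor contained 0.1% v/v DMSO.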
(Passage across Caco-2 layers is used to estimate intestinal permeability.)

A short description of series [4]: Octanol/pH 7.4 buffer partition coefficient, shake flask. Particulars: octanol/pH 7.4 buffer, pH 7.4. The essentials: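 Both phases were measured by LC-MS, the aqueous phase after re-centrifugation, and the partition coefficient was taken as the octanol-to-buffer concentration ratio over two sampling times. Equal volumes of octanol, holding compound at two dilutions of a 3-30 mg/mL stock, and pH 7.4 phosphate/NaCl buffer were mixed at 37 °C.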

In a further series the test system is Caco-2 cell monolayers. Briefly: Bidirectional permeability across Caco-2 cell monolayers. The conditions noted are these: matrix: pH 7.4 buffer. The method, boiled down: as §1
[5] abbreviates: FaSSGF, 37 °C, fassgf or other biorelevant.
The mark [6] stands for this setting: phosphate buffered saline pH 7.4, 37 °C, pH 7.4, aqueous buffer.
[7] abbreviates: Caco-2, A–B Papp, matrix: human plasma, corrected for fu.
Setting [8] is: FaSSGF, FaSSIF-V2, FeSSIF-V2 and PBS pH 7.4, 37 °C, pH 7.4, aqueous buffer.
Where [9] appears, read: Caco-2, pH 7.4, A–B Papp, matrix: pH 7.4 buffer.

Values after ≈ are worked out from the molar mass of the structure shown. Values joined by “and” are separate entries in the source; they are usually repeats but may differ in a detail not shown here. Equal values may be shown once.

T1 sequence (P02769 25-607): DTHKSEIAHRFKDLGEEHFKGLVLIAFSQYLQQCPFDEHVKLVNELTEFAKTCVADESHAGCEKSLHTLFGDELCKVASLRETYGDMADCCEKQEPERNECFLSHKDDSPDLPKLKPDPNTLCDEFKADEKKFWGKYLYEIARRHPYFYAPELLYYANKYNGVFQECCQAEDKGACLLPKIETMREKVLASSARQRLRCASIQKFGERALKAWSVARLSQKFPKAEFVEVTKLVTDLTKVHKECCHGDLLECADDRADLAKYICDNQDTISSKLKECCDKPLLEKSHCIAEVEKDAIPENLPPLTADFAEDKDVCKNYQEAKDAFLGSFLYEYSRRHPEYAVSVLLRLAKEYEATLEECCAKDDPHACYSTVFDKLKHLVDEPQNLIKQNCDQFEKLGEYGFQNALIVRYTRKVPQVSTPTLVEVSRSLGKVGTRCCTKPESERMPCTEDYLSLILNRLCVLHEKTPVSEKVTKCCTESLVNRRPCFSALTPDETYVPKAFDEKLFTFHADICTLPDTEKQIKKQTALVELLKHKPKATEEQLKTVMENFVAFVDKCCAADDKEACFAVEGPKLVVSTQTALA

A word on the fraction unbound: it is the share of the substance not bound to proteins or other matrix. A word on the solubility: it is the concentration that dissolves in the medium under given conditions. Higher therefore signals much dissolved substance. As a reminder, the Papp B→A is how fast a substance crosses the layer from the basolateral side. The term Papp A→B denotes the apparent permeability from the apical to the basolateral side of a cell layer. Read a high Papp A→B as fast passage. Consider `C[C@H]1Cc2c([nH]c3cc(Cl)c(F)cc23)[C@@]2(N1)C(=O)Nc1ccc(Cl)cc12` [KAE609], for which the fraction unbound at […], 500 ng/mL in series [1] (isolated protein, pH 7.4) was 0.044 ± 0.004. Besides, the solubility at 1 h in series [2] (setting [5]) was 1540 µg/mL and 3940 µM. Moreover, the solubility in series [2] (FaSSIF-V2, 37 °C, fassif) was 111 µg/mL and 284 µM; in series [2] (FeSSIF-V2, 37 °C, fessif), 1240 µg/mL and 3180 µM; in series [2] (setting [6]), 30.4 µg/mL and 77.9 µM. The basolateral-to-apical permeability (Papp B→A) in series [3] (Caco-2) was greater than 300 ×10⁻⁶ cm/s. Further, the Papp A→B in series [3] (setting [7]) was greater than 300 ×10⁻⁶ cm/s.
The logD is the decadic logarithm of the distribution of all forms, ionised or not, between an organic phase and buffer at a given pH. A word on the efflux ratio: it is a quotient of directional permeabilities that is used to spot active efflux. `CC(C)NC(=N)NC(=N)Nc1ccc(Cl)c(Cl)c1` [Chlorproguanil] came in with a logD in series [4] of 1.1. Further, the fraction unbound at […], 500 ng/mL in series [1] (isolated protein, pH 7.4) stood at 0.5 ± 0.02. For the same molecule, the solubility at 1 h in series [2] (setting [5]) is > 2000 µg/mL and > 6940 µM. In addition, the solubility in series [2] (setting [8]) was greater than 2000 µg/mL; in series [2] (FaSSIF-V2, 37 °C, fassif) it was 1100 µg/mL and 3810 µM; in series [2] (FeSSIF-V2, 37 °C, fessif), 1670 µg/mL and 5780 µM; in series [2] (setting [6]) it was 1420 µg/mL and 4930 µM. This molecule registered a Papp B→A in series [3] (Caco-2) of 61 ± 7.4 ×10⁻⁶ cm/s. Moreover, in series [3] (Caco-2), the efflux ratio stood at 3.2. Moreover, the Papp A→B in series [3] (setting [7]) came out at 19 ± 3 ×10⁻⁶ cm/s.
Regarding `C[C@H]1[C@H](OC(=O)CCC(=O)O)O[C@@H]2O[C@@]3(C)CC[C@H]4[C@H](C)CC[C@@H]1[C@@]24OO3` [Artesunate], the fraction unbound at […], 500 ng/mL in series [1] (Albumax medium, pH 7.4, instability evident, estimate only) is 0.14 ± 0.007. Besides, the solubility in series [2] (37 °C, fassgf or other biorelevant) is 321 µg/mL (≈ 835 µM); in series [2] (FaSSIF-V2, 37 °C, fassif), 1690 µg/mL and 4390 µM; in series [2] (FeSSIF-V2, 37 °C, fessif) it was 1720 µg/mL and 4490 µM; in series [2] (setting [6]) it was 1680 µg/mL and 4370 µM. The solubility at 1 h in series [2] (setting [5]) came to 835 µM (≈ 321 µg/mL). The molecule also gave a Papp B→A in series [3] (Caco-2, pH 7.4) of 2.8 ± 0.48 ×10⁻⁶ cm/s. In series [3] (setting [9]), this molecule returned a Papp A→B of 3.4 ×10⁻⁶ cm/s. Besides, the “A–B Papp” value in the series on Caco-2 cell monolayers is 2.9 10^−6 cm/s.
`CS(=O)(=O)c1ccc(-c2cnc(N)c(-c3ccc(C(F)(F)F)nc3)c2)cc1` [MMV048] returned a logD in series [4] of 2.5. The molecule further displayed a fraction unbound at […], 500 ng/mL in series [1] (isolated protein, pH 7.4) of 0.46 ± 0.022. The solubility at 1 h in series [2] (setting [5]) is 1200 µg/mL and 3040 µM. The solubility was 6.73 µg/mL and 17.1 µM in series [2] (FaSSIF-V2, 37 °C, fassif); 7.47 µg/mL and 19 µM in series [2] (FeSSIF-V2, 37 °C, fessif); 4.52 µg/mL and 11.5 µM in series [2] (setting [6]). In series [3] (Caco-2, pH 7.4), this molecule gave a Papp B→A of 53 ± 1.9 ×10⁻⁶ cm/s. Besides, in series [3] (setting [9]), the Papp A→B worked out at 41 ± 2.1 ×10⁻⁶ cm/s.
`CC1(C)c2nc(-c3ccc(F)cc3)c(Nc3ccc(F)cc3)n2CCN1C(=O)CN` [KAF156] registered a logD in series [4] of 2.06. In series [1] (isolated protein, pH 7.4), the fraction unbound at […], 500 ng/mL came to 0.38 ± 0.017. In series [2] (setting [5]), the solubility at 1 h was > 2000 µg/mL and > 4850 µM. Besides, the solubility was 400 to 500 µg/mL (≈ 972 to 1220 µM) in series [2] (setting [8]); 1600 µg/mL and 3880 µM in series [2] (FaSSIF-V2, 37 °C, fassif); > 2000 µg/mL and > 4850 µM in series [2] (FeSSIF-V2, 37 °C, fessif); 560 µg/mL and 1360 µM in series [2] (setting [6]). In addition, the Papp B→A in series [3] (Caco-2) worked out at 230 ± 17 ×10⁻⁶ cm/s. The molecule further showed a Papp A→B in series [3] (setting [7]) of 47 ± 7.6 ×10⁻⁶ cm/s.
In series [4], `Cc1cc(Nc2ccc(S(F)(F)(F)(F)F)cc2)n2nc(C(C)(F)F)nc2n1` [DSM265] returned a logD of 4.03. In addition, the solubility in series [2] (setting [6]) is 2.04 µg/mL and 4.9 µM. Besides, the Papp B→A in series [3] (Caco-2, pH 7.4) was 49 ± 5.1 ×10⁻⁶ cm/s. This molecule displayed a Papp A→B in series [3] (setting [9]) of 52.4 ×10⁻⁶ cm/s. Also, the “A–B Papp” value in the series on Caco-2 cell monolayers is listed as 69.7 10^−6 cm/s.
In series [1] (isolated protein, pH 7.4), `CC1(C)N=C(N)N=C(N)N1c1ccc(Cl)cc1` [Cycloguanil] returned a fraction unbound at […], 500 ng/mL of 0.88 ± 0.057. Besides, the solubility at 1 h in series [2] (setting [5]) was > 2000 µg/mL and > 7950 µM. For the same molecule, the solubility in series [2] (FaSSIF-V2, 37 °C, fassif) is > 2000 µg/mL and > 7950 µM; in series [2] (FeSSIF-V2, 37 °C, fessif), 533 µg/mL and 2120 µM; in series [2] (setting [6]) it was > 2000 µg/mL and > 7950 µM. In series [3] (Caco-2, pH 7.4), the Papp B→A is 0.77 ± 0.05 ×10⁻⁶ cm/s. In addition, the “A–B Papp” value with Caco-2 cell monolayers was 1.2 ± 0.070 10^−6 cm/s; in the series on Caco-2 cell monolayers (listed as cycloguanil), < 5 10^−6 cm/s.
On to `Cc1nc(Nc2ncc(N3CCN(C)[C@H](C)C3)c(Nc3cc(C)n(C)n3)n2)cc(C2CC2)c1F` [MMV253], for which, in series [4], the logD was 4.42. In series [1] (isolated protein, pH 7.4), this molecule registered a free fraction (fraction unbound) at […], 500 ng/mL of 0.48 ± 0.026. The solubility at 1 h in series [2] (setting [5]) is > 2000 µg/mL and > 4300 µM. Besides, the solubility in series [2] (FaSSIF-V2, 37 °C, fassif) is 569 µg/mL and 1220 µM; in series [2] (FeSSIF-V2, 37 °C, fessif), > 2000 µg/mL and > 4300 µM; in series [2] (setting [6]), 19 µg/mL and 40.8 µM. Also, the Papp B→A in series [3] (Caco-2) came out at 150 ± 23 ×10⁻⁶ cm/s. For the same molecule, the efflux ratio in series [3] (Caco-2) is 1. In series [3] (setting [7]), this molecule registered a Papp A→B of 150 ± 29 ×10⁻⁶ cm/s.
